Three compounds from paper PMC4623978, “Modulation of Closed−State Inactivation in Kv2.1/Kv6.4 Heterotetramers as Mechanism for 4−AP Induced Potentiation” (PLoS ONE, 2015) can be followed below.

For one assay, the target named is T1, Kv2.1 homotetramer (Homo sapiens, UniProt Q14721).
T1 construct: gene KCNB1; full-length in eGFP-N1 vector, transiently expressed in mouse Ltk- cells; homotetramer
T1 sequence (Q14721 1-858): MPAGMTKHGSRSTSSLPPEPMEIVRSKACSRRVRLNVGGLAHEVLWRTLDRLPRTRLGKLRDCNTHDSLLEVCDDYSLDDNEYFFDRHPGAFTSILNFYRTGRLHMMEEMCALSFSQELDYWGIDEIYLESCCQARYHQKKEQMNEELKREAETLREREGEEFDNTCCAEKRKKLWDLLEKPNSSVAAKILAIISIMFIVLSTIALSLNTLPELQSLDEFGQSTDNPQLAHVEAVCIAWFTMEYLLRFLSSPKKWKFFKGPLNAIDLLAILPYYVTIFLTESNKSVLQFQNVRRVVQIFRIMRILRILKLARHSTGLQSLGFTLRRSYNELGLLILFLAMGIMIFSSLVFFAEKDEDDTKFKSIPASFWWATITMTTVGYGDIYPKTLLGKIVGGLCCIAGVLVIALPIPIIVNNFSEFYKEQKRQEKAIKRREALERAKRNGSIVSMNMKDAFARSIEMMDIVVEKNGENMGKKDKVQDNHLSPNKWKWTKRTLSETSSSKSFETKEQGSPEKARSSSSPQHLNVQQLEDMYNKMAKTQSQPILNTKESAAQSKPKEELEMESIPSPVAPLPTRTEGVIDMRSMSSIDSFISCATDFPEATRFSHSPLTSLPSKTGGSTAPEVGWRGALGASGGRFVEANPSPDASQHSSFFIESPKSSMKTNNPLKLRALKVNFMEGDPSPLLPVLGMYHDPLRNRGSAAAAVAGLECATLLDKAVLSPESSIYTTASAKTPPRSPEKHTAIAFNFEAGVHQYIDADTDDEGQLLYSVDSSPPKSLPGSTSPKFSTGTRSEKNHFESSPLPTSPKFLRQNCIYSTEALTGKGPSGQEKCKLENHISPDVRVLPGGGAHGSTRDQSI
Briefly: whole-cell patch clamp, Hill fit of current at +[…] mV. The assay is classed as cell-based. For orientation: Patch clamp records ionic current or voltage across a cell membrane.

Assay [1] addresses T2, Kv2.1/Kv6.4 heterotetramer (Homo sapiens, UniProt Q14721+Q8TDN1).
T2 construct: gene KCNB1; co-transfected in mouse Ltk- cells, KvS:Kv2.1 10:1 cDNA; formerly named Kv6.3
T2 sequence (Q14721 1-858): T1 sequence (Q14721 1-858)
T2 sequence (Q8TDN1 1-519): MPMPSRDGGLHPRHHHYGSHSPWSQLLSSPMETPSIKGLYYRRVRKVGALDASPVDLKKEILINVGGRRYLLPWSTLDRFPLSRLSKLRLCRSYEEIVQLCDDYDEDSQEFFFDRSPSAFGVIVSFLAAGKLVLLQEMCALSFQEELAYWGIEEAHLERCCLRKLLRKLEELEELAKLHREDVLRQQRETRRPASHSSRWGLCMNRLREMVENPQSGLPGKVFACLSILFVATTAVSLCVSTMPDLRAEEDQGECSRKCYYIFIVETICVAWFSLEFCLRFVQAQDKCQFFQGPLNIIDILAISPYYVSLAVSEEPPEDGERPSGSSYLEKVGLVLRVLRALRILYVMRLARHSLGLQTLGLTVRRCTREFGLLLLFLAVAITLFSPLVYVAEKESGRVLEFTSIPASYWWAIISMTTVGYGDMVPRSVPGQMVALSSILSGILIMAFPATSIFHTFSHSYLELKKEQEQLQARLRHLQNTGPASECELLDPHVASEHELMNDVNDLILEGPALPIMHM
The description is as above. In kind it is cell-based.

A further assay relates to T3, Kv2.1/Kv6.4_S6c_Kv9.3.
T3 construct: gene KCNB1
Briefly: whole-cell patch clamp, current block. The assay is classed as cell-based, Homo sapiens (Kv2.1, Kv6.4); Mus musculus (Kv9.3 S6c). The settings on record: pH 7.35 outside, 20-23 °C.

The target of assay [2] is T4, Kv2.1/Kv5.1 heterotetramer (Homo sapiens, UniProt Q14721+Q9H3M0).
T4 construct: gene KCNB1; co-transfected in mouse Ltk- cells, KvS:Kv2.1 10:1 cDNA
T4 sequence (Q14721 1-858): T1 sequence (Q14721 1-858)
T4 sequence (Q9H3M0 1-494): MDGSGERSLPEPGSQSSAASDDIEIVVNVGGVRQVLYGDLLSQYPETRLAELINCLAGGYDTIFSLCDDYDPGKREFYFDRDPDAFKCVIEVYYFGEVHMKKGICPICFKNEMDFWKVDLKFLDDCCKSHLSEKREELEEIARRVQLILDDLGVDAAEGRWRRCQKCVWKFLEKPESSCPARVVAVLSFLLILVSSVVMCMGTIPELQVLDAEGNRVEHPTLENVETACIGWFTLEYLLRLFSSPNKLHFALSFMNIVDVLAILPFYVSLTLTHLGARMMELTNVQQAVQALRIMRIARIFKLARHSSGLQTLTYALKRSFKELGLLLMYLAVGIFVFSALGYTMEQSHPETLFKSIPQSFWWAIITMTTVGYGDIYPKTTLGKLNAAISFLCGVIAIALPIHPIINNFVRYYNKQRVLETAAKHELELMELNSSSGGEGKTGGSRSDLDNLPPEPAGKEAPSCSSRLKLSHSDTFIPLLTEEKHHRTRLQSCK
Briefly: whole-cell patch clamp, current block. The note with it: pH 7.35 outside, 20-23 °C. The assay is classed as cell-based.

Usually IC50 stands for the midpoint of a concentration-inhibition curve. Low readings indicate inhibition by little substance, high ones a need for much substance. Regarding `C=C[C@H]1C[N@@]2CC[C@H]1C[C@@H]2[C@@H](O)c1ccnc2ccc(OC)cc12` [quinidine], the IC50 at Kv2.1 homotetramer was 7.2 ± 0.8 µM; in assay [1], 3 ± 0.1 µM.

The % inhibition is the change of the read-out against control, counted positive when it falls. Read a low % inhibition as little suppression. `Nc1ccncc1` [4-aminopyridine]: the “% inhibition at 18 mM” value was 12 ± 3% in the assay with Kv2.1/Kv6.4_S6c_Kv9.3 and 10 ± 2% in assay [2].

Turning to `O=C(NCC1CCCCN1)c1cc(OCC(F)(F)F)ccc1OCC(F)(F)F` (stereo not drawn) [flecainide], the IC50 against Kv2.1 homotetramer worked out at 7.4 ± 0.8 µM; in assay [1] it was 2 ± 0.1 µM.
